Test system: pseudorabies virus (PRV)
Parameters: species or system pigs
Conditions: pig, in vivo

Row | Sequence | protection from mortality caused by challenge with virulent PRV
1 | KKSVRGKGKGQKRKRKKSRYKSWSV [VEGF peptide] | protected the animals from mortality
2 | YVRVRRPPKGKHRKFKHTH [PDGF peptide] | protected the animals from mortality

Source: patent US20140271723A1 (priority 2013, published 2014)
